Data as given in PubChem BioAssay AID330 (DTP/NCI, 2004).
Values joined by “and” are separate entries in the source; they are usually repeats but may differ in a detail not shown here. Equal values may be shown once. Toxic doses and inconclusive results are not listed.

System: P388 leukemia ip, CD2F1 mice, survival T/C
Assay: NCI In Vivo Anticancer Drug Screen. Data for tumor model P388 Leukemia (intraperitoneal) in CD2F1 (CDF1) mice
Conditions: endpoint: median survival time, higher = longer survival
Procedure, shortened: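 Mice carrying the transplanted tumor received test compound or vehicle. Survival was recorded in each group, and the value is the treated-group measurement divided by that of the vehicle-treated control group.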

[1] = dose: 50.0 mg/kg/injection, schedule: Q01DX005 (ip), vehicle: saline with Tween-80
[2] = dose: 100.0 mg/kg/injection, schedule: Q01DX005 (ip), vehicle: saline with Tween-80
[3] = dose: 200.0 mg/kg/injection, schedule: Q01DX005 (ip), vehicle: saline with Tween-80
[4] = dose: 100.0 mg/kg/injection, schedule: Q01DX001 (ip), vehicle: saline with Tween-80
[5] = dose: 200.0 mg/kg/injection, schedule: Q01DX001 (ip), vehicle: saline with Tween-80
[6] = dose: 400.0 mg/kg/injection, schedule: Q01DX001 (ip), vehicle: saline with Tween-80
[7] = dose: 60.0 mg/kg/injection, schedule: Q01DX005 (ip), vehicle: saline with Tween-80
[8] = dose: 60.0 mg/kg/injection, schedule: Q01DX005 (ip), vehicle: Klucel (hydroxypropylcellulose) (HPC)
[9] = dose: 120.0 mg/kg/injection, schedule: Q01DX005 (ip), vehicle: Klucel (hydroxypropylcellulose) (HPC)
[10] = dose: 240.0 mg/kg/injection, schedule: Q01DX005 (ip), vehicle: Klucel (hydroxypropylcellulose) (HPC)
[11] = dose: 50.0 mg/kg/injection, schedule: Q01DX009 (ip), vehicle: saline with Tween-80
[12] = dose: 100.0 mg/kg/injection, schedule: Q01DX009 (ip), vehicle: saline with Tween-80
[13] = dose: 200.0 mg/kg/injection, schedule: Q01DX009 (ip), vehicle: saline with Tween-80

`Nc1ccn([C@@H](C=O)O[C@@H](C=O)CO)c(=O)n1` was tested, and the T/C (dose: 44.0 mg/kg/injection, schedule: Q04DX003 (ip), vehicle: saline) was 112 % of control, the T/C (dose: 66.0 mg/kg/injection, schedule: Q04DX003 (ip), vehicle: saline) was 120 % of control and the T/C (dose: 100.0 mg/kg/injection, schedule: Q01DX009 (ip), vehicle: saline) was 150 % of control. For the same compound, the T/C (dose: 200.0 mg/kg/injection, schedule: Q01DX009 (ip), vehicle: saline) was 180 % of control.
`COCC#CC(C)(C)OC` was tested, and the T/C (dose: 60.0 mg/kg/injection, schedule: Q01DX005 (ip), vehicle: saline) was 95 % of control, the T/C (dose: 120.0 mg/kg/injection, schedule: Q01DX005 (ip), vehicle: saline) was 95 % of control and the T/C (dose: 240.0 mg/kg/injection, schedule: Q01DX005 (ip), vehicle: saline) was 99 % of control.
`S=C(N/N=C1/CCCC/C1=N/NC(=S)N1CCOCC1)N1CCOCC1` was tested, and the T/C (dose: 1.56 mg/kg/injection, schedule: Q01DX005 (ip), vehicle: saline with Tween-80) was 101 % of control and 103 % of control and the T/C (dose: 3.12 mg/kg/injection, schedule: Q01DX005 (ip), vehicle: saline with Tween-80) was 99 % of control and 103 % of control and 104 % of control.
`Cn1c(CC(=O)O)csc1=S` was tested, and the T/C [1] was 93 % of control, the T/C [2] was 94 % of control and the T/C [3] was 89 % of control.
`CC(C)C(/C=C/c1ccccc1)=N\NS(=O)(=O)c1ccccc1` was tested, and the T/C [4] was 105 % of control, the T/C [5] was 98 % of control and the T/C [6] was 96 % of control.
`COC(=O)C(CC(C)C)NC(=O)C(Cc1cnc[nH]1)NC(=O)C(CS)N(C(=O)OCc1ccccc1)C(=O)OCc1ccccc1` (configuration not stated) was tested, and the T/C [1] was 99 % of control, the T/C [2] was 98 % of control and the T/C [3] was 100 % of control.
For `C=C(C)c1cc2cc(C(C)=O)ccc2o1`, the T/C (dose: 2.25 mg/kg/injection, schedule: Q01DX009 (ip), vehicle: Klucel (hydroxypropylcellulose) (HPC)) was 108 % of control, the T/C (dose: 4.5 mg/kg/injection, schedule: Q01DX009 (ip), vehicle: Klucel (hydroxypropylcellulose) (HPC)) was 115 % of control and the T/C (dose: 9.0 mg/kg/injection, schedule: Q01DX009 (ip), vehicle: Klucel (hydroxypropylcellulose) (HPC)) was 97 % of control. For the same compound, the T/C (dose: 18.0 mg/kg/injection, schedule: Q01DX009 (ip), vehicle: Klucel (hydroxypropylcellulose) (HPC)) was 115 % of control and the T/C (dose: 36.0 mg/kg/injection, schedule: Q01DX009 (ip), vehicle: Klucel (hydroxypropylcellulose) (HPC)) was 113 % of control.
With `COc1ccc(C(Cl)(c2ccccc2)c2ccc(C(C)=O)cc2)cc1` (configuration not stated) the T/C (dose: 15.0 mg/kg/injection, schedule: Q01DX005 (ip), vehicle: saline with Tween-80) was 107 % of control, the T/C (dose: 30.0 mg/kg/injection, schedule: Q01DX005 (ip), vehicle: saline with Tween-80) was 101 % of control and the T/C [7] was 88 % of control and 97 % of control.
With `COC(=O)c1nc(-c2ccc3c(n2)C(=O)C(N)=C(OC)C3=O)c(N)c(-c2ccc(OC)c(OC)c2O)c1C` the T/C (dose: 1.5 mg/kg/injection, schedule: Q01DX009 (ip), vehicle: saline with Tween-80) was 100 % of control, the T/C (dose: 3.0 mg/kg/injection, schedule: Q01DX009 (ip), vehicle: saline with Tween-80) was 118 % of control and the T/C (dose: 6.0 mg/kg/injection, schedule: Q01DX009 (ip), vehicle: saline with Tween-80) was 122 % of control. For the same compound, the T/C (dose: 6.25 mg/kg/injection, schedule: Q01DX009 (ip), vehicle: saline with Tween-80) was 150 % of control and the T/C (dose: 66.0 mg/kg/injection, schedule: Q04DX003 (ip), vehicle: saline with Tween-80) was 109 % of control.
For `Cc1cc(Cl)ccc1NC(=O)N1CCCCC1`, the T/C [8] was 96 % of control, the T/C [9] was 96 % of control and the T/C [10] was 93 % of control.
For `Nc1nc(N)c2[nH]c(=O)[nH]c2n1`, the T/C [1] was 103 % of control, the T/C [2] was 103 % of control and the T/C [3] was 118 % of control.
`CCOP(=O)(O)C1CCCC(C)[N-]1.CCOP(=O)(O)C1CCCC(C)[N-]1.[Fe+2]` (configuration not stated) was tested, and the T/C (dose: 25.0 mg/kg/injection, schedule: Q04DX003 (ip), vehicle: Klucel (hydroxypropylcellulose) (HPC)) was 101 % of control, the T/C (dose: 50.0 mg/kg/injection, schedule: Q04DX003 (ip), vehicle: Klucel (hydroxypropylcellulose) (HPC)) was 95 % of control and the T/C (dose: 100.0 mg/kg/injection, schedule: Q04DX003 (ip), vehicle: Klucel (hydroxypropylcellulose) (HPC)) was 100 % of control and 89 % of control.
For `CCOC(=O)c1cc2c(nn3c(C)cccc23)n(CC)c1=N`, the T/C (dose: 3.12 mg/kg/injection, schedule: Q01DX001 (ip), vehicle: saline) was 100 % of control and 101 % of control, the T/C (dose: 6.25 mg/kg/injection, schedule: Q01DX001 (ip), vehicle: saline) was 101 % of control and 105 % of control and the T/C (dose: 12.5 mg/kg/injection, schedule: Q01DX001 (ip), vehicle: saline) was 100 % of control and 98 % of control. The T/C (dose: 25.0 mg/kg/injection, schedule: Q01DX001 (ip), vehicle: saline) was 103 % of control and 93 % of control.
For `Cc1cc(C)c2c(c1)sc1nncn12`, the T/C (dose: 50.0 mg/kg/injection, schedule: Q01DX009 (ip), vehicle: Klucel (hydroxypropylcellulose) (HPC)) was 118 % of control, the T/C (dose: 100.0 mg/kg/injection, schedule: Q01DX009 (ip), vehicle: Klucel (hydroxypropylcellulose) (HPC)) was 94 % of control and the T/C (dose: 200.0 mg/kg/injection, schedule: Q01DX009 (ip), vehicle: Klucel (hydroxypropylcellulose) (HPC)) was 92 % of control.
`Cc1cccc(Oc2cnc(=O)[nH]c2)c1` was tested, and the T/C [11] was 100 % of control, the T/C [12] was 93 % of control and the T/C [13] was 99 % of control.
For `CCCCCCCCCCSCC(N)C(=O)OCC` (configuration not stated), the T/C [11] was 99 % of control and the T/C [12] was 94 % of control.
With `O=C1OCCCCOC(=O)c2ccccc2SSc2ccccc21` the T/C [4] was 90 % of control, the T/C [5] was 99 % of control and the T/C [6] was 99 % of control.
For `Nc1nc(-c2ccc([N+](=O)[O-])cc2)cc(-c2cc(-c3ccc([N+](=O)[O-])cc3)nc(N)n2)n1`, the T/C [8] was 87 % of control, the T/C [9] was 89 % of control and the T/C [10] was 94 % of control.
In the case of `OCC12CCCC(CO)(COC1)C2O` (configuration not stated), the T/C (dose: 25.0 mg/kg/injection, schedule: Q01DX005 (ip), vehicle: saline) is reported as 105 % of control, the T/C (dose: 50.0 mg/kg/injection, schedule: Q01DX005 (ip), vehicle: saline) is reported as 105 % of control and the T/C (dose: 100.0 mg/kg/injection, schedule: Q01DX005 (ip), vehicle: saline) is reported as 100 % of control. For the same compound, the T/C (dose: 200.0 mg/kg/injection, schedule: Q01DX005 (ip), vehicle: saline) was 115 % of control.
With `CCN(CC)CCNc1ccc(O)c2sc3ccccc3c(=O)c12` the T/C (dose: 6.25 mg/kg/injection, schedule: Q01DX009 (ip), vehicle: saline + alcohol) was 94 % of control, the T/C (dose: 12.5 mg/kg/injection, schedule: Q01DX009 (ip), vehicle: saline + alcohol) was 89 % of control and the T/C (dose: 25.0 mg/kg/injection, schedule: Q01DX009 (ip), vehicle: saline + alcohol) was 99 % of control. The T/C (dose: 50.0 mg/kg/injection, schedule: Q01DX009 (ip), vehicle: saline + alcohol) was 103 % of control.
In the case of `Cn1c(-c2ccccc2)c/c(=N\NS(C)(=O)=O)c2cc(S(=O)(=O)O)ccc21`, the T/C [11] is reported as 96 % of control, the T/C [12] is reported as 91 % of control and the T/C [13] is reported as 98 % of control.
`Cn1c(=O)c2c(nc(/N=C/c3ccncc3)n2C)n(C)c1=O` was tested, and the T/C (dose: 100.0 mg/kg/injection, schedule: Q04DX003 (ip), vehicle: saline) was 101 % of control, the T/C (dose: 200.0 mg/kg/injection, schedule: Q04DX003 (ip), vehicle: saline) was 101 % of control and the T/C (dose: 400.0 mg/kg/injection, schedule: Q04DX003 (ip), vehicle: saline) was 101 % of control.
In the case of `CCOC(=O)CN1CN(CCc2ccccc2)CC(C)(C)C1OCC` (configuration not stated), the T/C [11] is reported as 104 % of control, the T/C [12] is reported as 101 % of control and the T/C [13] is reported as 121 % of control. The T/C (dose: 400.0 mg/kg/injection, schedule: Q01DX009 (ip), vehicle: saline with Tween-80) was 112 % of control.
With `CC1=CC(=O)C(O)C2(C)C1CC1OC(=O)C(OC(=O)/C=C(\C)C(C)C)C3C(C)C(O)C4(O)OCC13C42` (configuration not stated) the T/C (dose: 0.25 mg/kg/injection, schedule: Q01DX005 (ip), vehicle: saline + alcohol) was 113 % of control, the T/C (dose: 0.5 mg/kg/injection, schedule: Q01DX005 (ip), vehicle: saline + alcohol) was 121 % of control and the T/C (dose: 1.0 mg/kg/injection, schedule: Q01DX005 (ip), vehicle: saline + alcohol) was 121 % of control.
`O=C(N/C(=C\c1ccc2c(c1)OCO2)c1nc2ccccc2s1)c1ccccc1` was tested, and the T/C [7] was 107 % of control, the T/C (dose: 120.0 mg/kg/injection, schedule: Q01DX005 (ip), vehicle: saline with Tween-80) was 121 % of control and the T/C (dose: 240.0 mg/kg/injection, schedule: Q01DX005 (ip), vehicle: saline with Tween-80) was 123 % of control.
